Here are results for 20 molecules from US11319299B2, “Substituted carboxamides as inhibitors of WDR5 protein-protein binding” (PROPELLON THERAPEUTICS INC., priority 2016, dated 2022).

Where two headings read alike, the source gives them in different places.

Test [1] addresses WDR5 (Homo sapiens (Human), UniProt P61964). Description: Surface Plasmon Resonance (SPR) assay, KD and residence time. It counts as binding. The settings on record: read-out: WDR5 binding affinity (KD).
Test [2] concerns MV4-11 cells. As to the kind of experiment: Cell proliferation assay (ATPlite). It counts as cell-based. The settings on record: MV-411 cells, five days, read-out: In vitro whole cell potency in MV-411 cells, (IC50). The gist of the method:
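Read-out is ATP-based luminescence (ATPlite) after 5 days of culture at 37° C under 5% CO2. Compounds were given as 10-point dilutions starting at 10 μM to MV4-11 cells, seeded at 1,000 cells/well in Alpha-MEM plus 10% FBS.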
A general note: ATP-based viability assays read luminescence as a measure of living cells.

Setting [3] is: surface plasmon resonance (SPR) assay.
The mark [4] stands for this setting: surface plasmon resonance (SPR).

As usually defined, the Kd is the concentration at which binding is half-saturated. One may read the IC50 as the concentration that inhibits the measured activity by half. For `CC(C)C1CN(c2ncc(-c3cc(NC(=O)c4c[nH]c(=O)cc4C(F)(F)F)c(N4C[C@@H](C)N(C)[C@@H](C)C4)cc3F)cn2)CCO1` (stereo in doubt) [Example 348, N-[4-fluoro-5-[2-[(2R)-2-propan-2-ylmorpholin-4-yl]pyrimidin-5-yl]-2-[(3S,5R)-3,4,5-trimethylpiperazin-1-yl]phenyl]-6-oxo-4-(trifluoromethyl)-1H-pyridine-3-carboxamide], in test [1] (setting [3]), the Kd amounted to 2.28 nM. Also, in test [2] (Homo sapiens, MV4-11, 120 h), the IC50 is 42 nM.
On to `C[C@@H]1CN(c2cc(F)c(-c3cnc(N4CCOCC4)nc3)cc2NC(=O)c2cn(C)c(=O)cc2C(F)(F)F)C[C@H](C)N1C` [Example 93, N-[4-fluoro-5-(2-morpholin-4-ylpyrimidin-5-yl)-2-[(3R,5S)-3,4,5-trimethylpiperazin-1-yl]phenyl]-1-methyl-6-oxo-4-(trifluoromethyl)pyridine-3-carboxamide], for which, in test [1] (setting [3]), the Kd came out at 2.17 nM. Besides, in test [2] (Homo sapiens, MV4-11, 120 h), the IC50 came out at 48 nM.
For the molecule `CC1CN(c2cc(F)c(-c3cnc(N4CCN(C)CC4)nc3)cc2NC(=O)c2cn(C)c(=O)cc2C(F)(F)F)CCN1C` (stereo in doubt) [Example 279, N-[4-fluoro-5-[2-(4-methylpiperazin-1-yl)pyrimidin-5-yl]-2-[(3R)-3,4-dimethylpiperazin-1-yl]phenyl]-1-methyl-6-oxo-4-(trifluoromethyl)pyridine-3-carboxamide], in test [1] (setting [3]), the Kd amounted to 2.08 nM. For the same molecule, in test [2] (Homo sapiens, MV4-11, 120 h), the 50% inhibitory concentration (IC50) is 118 nM.
As to `C[C@@H]1CN(c2cc(F)c(-c3csc(C(=O)N(C)CC4CC4)n3)cc2NC(=O)c2c[nH]c(=O)cc2C(F)(F)F)C[C@H](C)N1C` [Example 532, N-(cyclopropylmethyl)-4-[2-fluoro-5-[[6-oxo-4-(trifluoromethyl)-1H-pyridine-3-carbonyl]amino]-4-[(3R,5S)-3,4,5-trimethylpiperazin-1-yl]phenyl]-N-methyl-1,3-thiazole-2-carboxamide], in test [1] (setting [4]), the Kd was determined as 0.694 nM. The IC50 in test [2] (Homo sapiens, MV4-11, 120 h) was 22 nM.
On to `C[C@@H]1CN(c2cc(F)c(-c3ccnc(N4CCOCC4)n3)cc2NC(=O)c2c[nH]c(=O)cc2C(F)(F)F)C[C@H](C)N1C` [Example 378, N-[4-fluoro-5-(2-morpholin-4-ylpyrimidin-4-yl)-2-[(3R,5S)-3,4,5-trimethylpiperazin-1-yl]phenyl]-6-oxo-4-(trifluoromethyl)-1H-pyridine-3-carboxamide], for which the Kd in test [1] (setting [3]) was 0.877 nM. Besides, the IC50 in test [2] (Homo sapiens, MV4-11, 120 h) amounted to 20 nM.
In the case of `CCN(C)C1CCN(c2cc(F)c(-c3cnc(N4C[C@@H](C)O[C@@H](C)C4)nc3)cc2NC(=O)c2c[nH]c(=O)cc2C(F)(F)F)C1` (stereo in doubt) [Example 418, N-[4-fluoro-5-[2-[(2R,6S)-2,6-dimethylmorpholin-4-yl]pyrimidin-5-yl]-2-[(3S)-3-[ethyl(methyl)amino]pyrrolidin-1-yl]phenyl]-6-oxo-4-(trifluoromethyl)-1H-pyridine-3-carboxamide], the Kd in test [1] (setting [4]) stood at 1.05 nM. Besides, in test [2] (Homo sapiens, MV4-11, 120 h), the IC50 turned out to be 70 nM.
Take `C[C@@H]1CN(c2cc(F)c(-c3ccc(N4CCOCC4)c(F)c3)cc2NC(=O)c2cn(C)c(=O)cc2C(F)(F)F)C[C@H](C)N1C` [Example 247, N-[4-fluoro-5-(3-fluoro-4-morpholin-4-ylphenyl)-2-[(3R,5S)-3,4,5-trimethylpiperazin-1-yl]phenyl]-1-methyl-6-oxo-4-(trifluoromethyl)pyridine-3-carboxamide]: in test [1] (setting [3]), the Kd was 5.16 nM. The IC50 in test [2] (Homo sapiens, MV4-11, 120 h) was 854 nM.
For `CC1CN(c2cc(F)c(-c3cnc(N4CCOCC4)nc3)cc2NC(=O)c2c[nH]c(=O)cc2C(F)F)CCN1C` (stereo in doubt) [Example 410, 4-(difluoromethyl)-N-[4-fluoro-5-(2-morpholin-4-ylpyrimidin-5-yl)-2-[(3R)-3,4-dimethylpiperazin-1-yl]phenyl]-6-oxo-1H-pyridine-3-carboxamide], in test [1] (setting [4]), the Kd was 0.84 nM. Moreover, in test [2] (Homo sapiens, MV4-11, 120 h), the IC50 amounted to 63 nM.
On to `COCCOc1ccc(-c2cc(NC(=O)c3c[nH]c(=O)cc3C(F)(F)F)c(N3C[C@@H](C)N(C)[C@@H](C)C3)cc2F)cc1` [Example 90, N-[4-fluoro-5-[4-(2-methoxyethoxy)phenyl]-2-[(3R,5S)-3,4,5-trimethylpiperazin-1-yl]phenyl]-6-oxo-4-(trifluoromethyl)-1H-pyridine-3-carboxamide], for which, in test [1] (setting [3]), the Kd was determined as 0.441 nM. For the same molecule, the IC50 in test [2] (Homo sapiens, MV4-11, 120 h) came to 120 nM.
As to `C[C@@H]1CN(c2cc(F)c(-c3nc(C(=O)N(C)CC4CC4)cs3)cc2NC(=O)c2c[nH]c(=O)cc2C(F)(F)F)C[C@H](C)N1C` [Example 483, N-(cyclopropylmethyl)-2-[2-fluoro-5-[[6-oxo-4-(trifluoromethyl)-1H-pyridine-3-carbonyl]amino]-4-[(3R,5S)-3,4,5-trimethylpiperazin-1-yl]phenyl]-N-methyl-1,3-thiazole-4-carboxamide], the Kd in test [1] (setting [4]) was found to be 3.97 nM. Further, the IC50 in test [2] (Homo sapiens, MV4-11, 120 h) came out at 24 nM.
As to `C[C@@H]1CN(c2cc(F)c(C3=CCCN(c4ncccn4)C3)cc2NC(=O)c2c[nH]c(=O)cc2C(F)(F)F)C[C@H](C)N1C` [Example 334, N-[4-fluoro-5-(1-pyrimidin-2-yl-3,6-dihydro-2H-pyridin-5-yl)-2-[(3R,5S)-3,4,5-trimethylpiperazin-1-yl]phenyl]-6-oxo-4-(trifluoromethyl)-1H-pyridine-3-carboxamide], the Kd in test [1] (setting [3]) was found to be 0.095 nM. Moreover, the IC50 in test [2] (Homo sapiens, MV4-11, 120 h) was found to be 31 nM.
With `COc1cc(N2CC=C(c3cc(NC(=O)c4c[nH]c(=O)cc4C(F)(F)F)c(N4C[C@@H](C)N(C)[C@@H](C)C4)cc3F)CC2)ncn1` [Example 274, N-[4-fluoro-5-[1-(6-methoxypyrimidin-4-yl)-3,6-dihydro-2H-pyridin-4-yl]-2-[(3R,5S)-3,4,5-trimethylpiperazin-1-yl]phenyl]-6-oxo-4-(trifluoromethyl)-1H-pyridine-3-carboxamide], the Kd in test [1] (setting [3]) came to 1.29 nM. Further, in test [2] (Homo sapiens, MV4-11, 120 h), the IC50 was determined as 75 nM.
`C[C@@H]1CN(c2cc(F)c(-c3cnc(N4CCOCC4)nc3)cc2NC(=O)c2ccc(F)cc2C(F)(F)F)C[C@H](C)N1C` [Example 248, 4-fluoro-N-[4-fluoro-5-(2-morpholin-4-ylpyrimidin-5-yl)-2-[(3R,5S)-3,4,5-trimethylpiperazin-1-yl]phenyl]-2-(trifluoromethyl)benzamide]: the Kd in test [1] (setting [3]) was determined as 1.33 nM. Besides, the IC50 in test [2] (Homo sapiens, MV4-11, 120 h) was found to be 137 nM.
With `C[C@@H]1CN(c2ncc(-c3cc(NC(=O)c4c[nH]c(=O)cc4C(F)(F)F)c(N4C[C@@H](C)N(C)[C@@H](C)C4)cc3F)cn2)C[C@H](C)O1` [Example 161, N-[4-fluoro-5-[2-[(2R,6S)-2,6-dimethylmorpholin-4-yl]pyrimidin-5-yl]-2-[(3S,5R)-3,4,5-trimethylpiperazin-1-yl]phenyl]-6-oxo-4-(trifluoromethyl)-1H-pyridine-3-carboxamide], the Kd in test [1] (setting [3]) was determined as 1 nM. Also, the IC50 in test [2] (Homo sapiens, MV4-11, 120 h) was determined as 28 nM.
Consider `CC(=O)Nc1ccc(-c2cc(NC(=O)c3c[nH]c(=O)cc3C(F)(F)F)c(N3C[C@@H](C)N(C)[C@@H](C)C3)cc2F)cn1` [Example 64, N-[5-(6-acetamidopyridin-3-yl)-4-fluoro-2-[(3R,5S)-3,4,5-trimethylpiperazin-1-yl]phenyl]-6-oxo-4-(trifluoromethyl)-1H-pyridine-3-carboxamide], for which the Kd in test [1] (setting [3]) was determined as 0.199 nM. In addition, the IC50 in test [2] (Homo sapiens, MV4-11, 120 h) worked out at 366 nM.
As for `C[C@@H]1CN(c2cc(F)c(C3=CCN(C(=O)OC4(C)CCC4)C3)cc2NC(=O)c2c[nH]c(=O)cc2C(F)(F)F)C[C@H](C)N1C` [Example 472, (1-methylcyclobutyl) 3-[2-fluoro-5-[[6-oxo-4-(trifluoromethyl)-1H-pyridine-3-carbonyl]amino]-4-[(3R,5S)-3,4,5-trimethylpiperazin-1-yl]phenyl]-2,5-dihydropyrrole-1-carboxylate], the Kd in test [1] (setting [4]) is 0.407 nM. Further, the IC50 in test [2] (Homo sapiens, MV4-11, 120 h) is 104 nM.
In the case of `CC1CN(c2nccc(-c3cc(NC(=O)c4c[nH]c(=O)cc4C(F)(F)F)c(N4C[C@@H](C)N(C)[C@@H](C)C4)cc3F)n2)CCO1` (stereo in doubt) [Example 594, N-[4-fluoro-5-[2-[(2R)-2-methylmorpholin-4-yl]pyrimidin-4-yl]-2-[(3S,5R)-3,4,5-trimethylpiperazin-1-yl]phenyl]-6-oxo-4-(trifluoromethyl)-1H-pyridine-3-carboxamide], the Kd in test [1] (setting [4]) was 0.712 nM. Moreover, the IC50 in test [2] (Homo sapiens, MV4-11, 120 h) is 19 nM.
Regarding `CC1CN(c2cc(F)c(-c3cnc(N4C[C@@H](C)O[C@@H](C)C4)nc3)cc2NC(=O)c2c[nH]c(=O)cc2C(F)(F)F)CCN1C` (stereo in doubt) [Example 202, N-[4-fluoro-5-[2-[(2R,6S)-2,6-dimethylmorpholin-4-yl]pyrimidin-5-yl]-2-[(3R)-3,4-dimethylpiperazin-1-yl]phenyl]-6-oxo-4-(trifluoromethyl)-1H-pyridine-3-carboxamide], the dissociation constant (Kd) in test [1] (setting [3]) was determined as 0.434 nM. Further, the IC50 in test [2] (Homo sapiens, MV4-11, 120 h) turned out to be 20 nM.
On to “4-(difluoromethyl)-N-[4-fluoro-5-[2-[(3R)-3-methylmorpholin-4-yl]pyrimidin-5-yl]-2-[(3S,5R)-3,4,5-trimethylpiperazin-1-yl]phenyl]-6-oxo-1H-pyridine-3-carboxamide [Example 521]”, for which the Kd in test [1] (setting [4]) is 0.579 nM. In addition, the IC50 in test [2] is 68 nM.
As for `C[C@@H]1CN(c2cc(F)c(C3=CCN(C(=O)OC4(C)CCC4)CC3)cc2NC(=O)c2c[nH]c(=O)cc2C(F)(F)F)C[C@H](C)N1C` [Example 470, (1-methylcyclobutyl) 4-[2-fluoro-5-[[6-oxo-4-(trifluoromethyl)-1H-pyridine-3-carbonyl]amino]-4-[(3R,5S)-3,4,5-trimethylpiperazin-1-yl]phenyl]-3,6-dihydro-2H-pyridine-1-carboxylate], the Kd in test [1] (setting [4]) is 4.27 nM. For the same molecule, the IC50 in test [2] (Homo sapiens, MV4-11, 120 h) amounted to 56 nM.
